Laboratory results taken from patent publication US8815829B2, “3′-azido purine nucleotide prodrugs for treatment of viral infections” (priority 2008, dated 2014).
Where two headings read alike, the source gives them in different places.

Key:
[1] = system: adenosine deaminase; experiment: Adenosine deaminase assay (deamination of nucleosides); assay type: in vitro ADME
Experimental: In order to determine if these 6-substituted compounds are converted to G analogs by the enzyme adenosine deaminase, a series of enzyme kinetics experiments were undertaken.
To determine the propensity for deamination of the APN nucleosides by adenosine deaminase, nucleoside compounds were incubated with the commercially available purified enzyme, and the reaction was followed spectrophotometrically. Reaction conditions were 50 mM potassium phosphate, pH 7.4, with 50 μM APN nucleoside in 0.5 mL at 25° C. Reaction time was 7 minutes with 0.002 units of enzyme and 120 minutes with 0.2 units of enzyme. (The unit definition of adenosine deaminase is one unit will deaminate 1.0 μmol of adenosine to inosine per minute at pH 7.5 at 25° C.) Deoxyadenosine was the positive control which was 59% deaminated under the given conditions in 7 minutes with 0.002 units of enzyme. Deoxyguanosine was the negative control. Optical density was measured at 265 nm or 285 nm. The difference in optical density between the beginning and the end of the experiment was divided by the extinction coefficient then multiplied by the volume of the reaction to determine the number of mols of substrate transformed into product. Mols of product were divided by mols of substrate equivalent to a 100% complete reaction then multiplied by 100 to obtain percent deamination. The limit of detection was 0.001 optical density units.

[2] = system: HCV Replicon RNA; experiment: HCV Replicon Assay (Huh 7 Clone B cells); assay type: cell-based; conditions: tested at 10 μM, five days
Text: (§1) Agents Chemother. […] K., Otto, M. J., Schinazi, R. F. “Antiviral activities and cellular toxicities of modified 2′,3′-dideoxy-2′,3′-didehydrocytidine analogs” Antimicrob. Agents Chemother. 2002, 46, 3854-60. • ^cHSV-1 drug susceptibility assay was done as previously described in: Schinazi, R. F., Peters, J., Williams, C. C., Chance, D., Nahmias, A. J. “Effect of combinations of acyclovir with vidarabine or its 5′-monophosphate on herpes simplex virus in cell culture and in mice.” Antimicrob. Agents Chemother. 1982, 22, 499-507. • ^dHCV Replicon Assay^1: Huh 7 Clone B cells containing HCV Replicon RNA were seeded in a 96-well plate at 5000 cells/well, and the compounds were tested at 10 μM in triplicate immediately after seeding. Following five days incubation (37° C., 5% CO2), total cellular RNA was isolated by using versaGene RNA purification kit from Gentra. Replicon RNA and an internal control (TaqMan rRNA control reagents, Applied Biosystems) were amplified in a single step multiplex Real Time RT-PCR Assay. The antiviral effectiveness of the compounds was calculated by subtracting the threshold RT-PCR cycle of the test compound from the threshold RT-PCR cycle of the no-drug control (ΔCtHCV). A ΔCt of 3.3 equals a 1-log reduction (equal to 90% less starting material) in Replicon RNA levels. The cytotoxicity of the compounds was also calculated by using the ΔCt rRNA values. 77 (2′-Me-C) was used as the control. To determine EC90 and IC50 values^2, ΔCt: values were first converted into fraction of starting material^3 and then were used to calculate the % inhibition.

[3] = system: PBM cells; experiment: Cytotoxicity assay in PBM cells; assay type: cell-based, human
[4] = system: CEM cells; experiment: Cytotoxicity assay in CEM cells; assay type: cell-based, human
[5] = system: Vero cells; experiment: Cytotoxicity assay in Vero cells; assay type: cell-based
[6] = system: HSV-1; experiment: HSV-1 drug susceptibility assay; assay type: cell-based
Text: as §1

[7] = system: HIV-1/LAI; experiment: Anti-HIV-1 assay in PBM cells; assay type: cell-based
Experimental: Stock solutions (20-40 mM) of the compounds were prepared in sterile DMSO and then diluted to the desired concentration in growth medium. Cells were infected with the prototype HIV-1LAI at a multiplicity of infection of 0.01. Virus obtained from the cell supernatant was quantified on day 6 after infection by a reverse transcriptase assay using (rA)n·(dT)12-18 as template-primer. […] The antiviral EC50 and EC90 were obtained from the concentration-response curve using the median effective method described previously (see Chou T.-C. & Talalay P. Adv. Enzyme Regul. 1984, 22, 27-55; Belen'kii M. S. & Schinazi R. F. Antiviral Res. 1994, 25, 1-11).

[8] = system: HIV-2/pROD10; experiment: HIV-2 drug susceptibility in PBM cells; assay type: cell-based; conditions: Human immunodeficiency virus 2, PBMC
[9] = system: HBV; experiment: Anti-HBV assay (AD-38 cell line); assay type: cell-based; conditions: Hepatitis B virus
Experimental: The anti-HBV activity of the compounds was determined by treating the AD-38 cell line carrying wild type HBV under the control of tetracycline (see Ladner S. K., Otto M. J., Barker C. S., Zaifert K., Wang G. H., Guo J. T., Seeger C. & King R. W. Antimicrob. Agents Chemother. 1997, 41, 1715-20). Removal of tetracycline from the medium [Tet (−)] results in the production of HBV. The levels of HBV in the culture supernatant fluids from cells treated with the compounds were compared with that of the untreated controls. Control cultures with tetracycline [Tet (+)] were also maintained to determine the basal levels of HBV expression.

[10] = system: PBM cells; conditions: human, 4 h, 50 μM
[11] = 50 μM nucleoside, pH 7.4, 25° C., 0.002 units enzyme
[12] = 50 μM nucleoside, pH 7.4, 25° C., 0.2 units enzyme
[13] = Table 5, read-out: Toxicity IC50 Vero
[14] = Human immunodeficiency virus 1, PBMC, PBM cells, read-out: HIV-1/LAI (PBM) EC50
[15] = Human immunodeficiency virus 1, PBMC, PBM cells, read-out: HIV-1/LAI (PBM) EC90
[16] = Chlorocebus sabaeus, Vero, read-out: Vero IC50

Structure (SMILES) | EC50 [7, 14] [nM] | EC90 [7, 15] [µM] | EC50 [8] [nM] | EC90 [8] [µM] | EC50 [9] [µM] | EC90 [9] [µM] | nucleotides detected (LC/MS) [10] | species not detected (LC/MS) [10] | also measured
Nc1ncnc2c1ncn2[C@H]1C[C@H](O)[C@@H](CO)O1 [2Õ-deoxy- adenosine, Deoxyadenosine, reference compound] | – | – | – | – | – | – | – | – | Deamination in 7 min (0.002 units Adenosine Deaminase) [1, 11]: 59.30%; Deamination in 7 min (0.002 units Adenosine Deaminase) ([1]; 50 μM nucleoside, pH 7.4, 25° C., 0.002 units enzyme, listed as Deoxyadenosine): 59%; Deamination in 120 min (0.2 units Adenosine Deaminase) [1, 12]: 105.50%
Nc1nc(O)c2ncn([C@H]3C[C@H](O)[C@@H](CO)O3)c2n1 [2Õ-deoxy- guanosine, Deoxyguanosine, reference compound] | – | – | – | – | – | – | – | – | Deamination in 7 min (0.002 units Adenosine Deaminase) [1, 11]: below level of detection; Deamination in 120 min (0.2 units Adenosine Deaminase) [1, 12]: below level of detection
C[C@@]1(O)[C@H](O)[C@@H](CO)O[C@H]1n1ccc(N)nc1=O [2′-Me—C, reference compound] | – | – | – | – | – | – | – | – | EC50 [2]: 1300 nM; EC90 [2]: 5.4 µM; IC50 ([3]; Table 5, read-out: Toxicity IC50 PBM): 29.4 µM; IC50 ([4]; Table 5, read-out: Toxicity IC50 CEM): 24.5 µM; IC50 [5, 13]: > 100 µM
Nc1nc2c(ncn2COCCO)c(=O)[nH]1 [ACV, reference compound] | – | – | – | – | – | – | – | – | EC50 [6]: 160 nM; EC90 [6]: 420 nM; IC50 [5, 13]: > 100 µM
C=CCNc1nc(N)nc2c1ncn2[C@H]1CC(N=[N+]=[N-])[C@@H](CO)O1 (stereo partly drawn) [Compound 62, 2-Amino-9-(3′-azido-2′,3′-dideoxy-β-D-erythro-pentofuranosyl)-6-allylamino-9H-purine] | 500 | 4.3 | 710 | 7.4 | > 10 | > 10 | detection of RFS-457-DP and RFS-457-TP | No RFS-427, RFS-427-MP, RFS-427-DP, or RFS-427-TP were detected | Deamination in 120 min (0.2 units Adenosine Deaminase) ([1]; 50 μM, pH 7.4): 7.60%
C=CCN(C)c1nc(N)nc2c1ncn2[C@H]1CC(N=[N+]=[N-])[C@@H](CO)O1 (stereo partly drawn) [Compound 63, 2-Amino-9-(3′-azido-2′,3′-dideoxy-β-D-erythro-pentofuranosyl)-6-N-methylallylamino-9H-purine] | 400 | 1.5 | 2400 | 6.1 | > 10 | > 10 | detection of RFS-457-TP | No RFS-464, RFS-464-MP, RFS-464-DP, or RFS-464-TP were detected | –
[N-]=[N+]=NC1C[C@H](n2cnc3c(NCCCCCO)nc(N)nc32)O[C@@H]1CO (stereo partly drawn) [Compound 64, 2-Amino-9-(3′-azido-2′,3′-dideoxy-β-D-erythro-pentofuranosyl)-6-aminopentanol-9H-purine] | – | – | > 100000 | > 100 | > 10 | > 10 | – | – | EC50 ([7]; Human immunodeficiency virus 1, PBMC, read-out: HIV-1/LAI (PBM) EC50, PBM cells): 86500 nM; EC90 ([7]; Human immunodeficiency virus 1, PBMC, read-out: HIV-1/LAI (PBM) EC90, PBM cells): > 10 µM
CC(C)(CO)Nc1nc(N)nc2c1ncn2[C@H]1CC(N=[N+]=[N-])[C@@H](CO)O1 (stereo partly drawn) [Compound 65, 2-Amino-9-(3′-azido-2′,3′-dideoxy-β-D-erythro-pentofuranosyl)-6-N-2-methyl-2-amino-propanol-9H-purine] | 52500 | > 10 | > 100000 | > 100 | > 10 | > 10 | – | – | –
CC(CO)Nc1nc(N)nc2c1ncn2[C@H]1CC(N=[N+]=[N-])[C@@H](CO)O1 (stereo partly drawn) [Compound 67] | 59900 | > 10 | 51600 | > 100 | > 10 | > 10 | – | – | –
CN(C)c1nc(N)nc2c1ncn2[C@H]1CC(N=[N+]=[N-])[C@@H](CO)O1 (stereo partly drawn) [Compound 69] | 210 | 1.05 | 2500 | 5.9 | > 10 | > 10 | – | – | Conversion by / stability to adenosine deaminase [1]: stable to adenosine deaminase
COc1nc(N)nc2c1ncn2[C@H]1CC(N=[N+]=[N-])[C@@H](CO)O1 (stereo partly drawn) [Compound 70] | – | – | – | – | – | – | detection of RFS-506-DP, RFS-457-DP, and RFS-457-TP | No RFS-506, RFS-506-MP, or RFS-506-TP were detected | Deamination in 7 min (0.002 units Adenosine Deaminase) ([1]; 50 μM, pH 7.4): 0.55 ± 5.8%; Deamination in 120 min (0.2 units Adenosine Deaminase) ([1]; 50 μM, pH 7.4): 130.22 ± 4.72%
[N-]=[N+]=NC1C[C@H](n2cnc3c(NC4CC4)nc(N)nc32)O[C@@H]1CO (stereo partly drawn) [Compound 72] | 1500 | 8.8 | 3100 | 15.8 | > 10 | > 10 | detection of RFS-457-DP and RFS-457-TP | No RFS-512, RFS-512-MP, RFS-512-DP, or RFS-512-TP were detected | Deamination in 7 min (0.002 units Adenosine Deaminase) ([1]; 50 μM, pH 7.4): 0.56%; Deamination in 120 min (0.2 units Adenosine Deaminase) ([1]; 50 μM, pH 7.4): 33.40%
[N-]=[N+]=NC1C[C@H](n2cnc3c(N)nc(N)nc32)O[C@@H]1CO (stereo partly drawn) [Compound 73, β-D-3′-azido-2,6-diamino-2′,3′-dideoxypurine] | – | – | – | – | – | – | detection of RFS-457, RFS-457-MP, RFS-457-DP, RFS-457-TP RFS-667-DP, and RFS-667-TP | No RFS-667 or RFS-667-MP were detected | major metabolite [10]: RFS-457-TP as the major metabolite
COCCNc1nc(N)nc2c1ncn2[C@H]1CC(N=[N+]=[N-])[C@@H](CO)O1 (stereo partly drawn) [Compound 74] | 2100 | 16.2 | – | – | – | – | – | – | –
CCOC(=O)[C@H](C)NP(=O)(OC[C@H]1O[C@@H](n2cnc3c(N)nc(N)nc32)CC1N=[N+]=[N-])Oc1ccccc1 (stereo partly drawn) [RS-783] | – | – | – | – | – | – | – | – | EC50 ([7]; Tables 2-4, n = 3 for the MP prodrugs, read-out: HIV EC50): 3.4 nM; EC90 ([7]; Tables 2-4, n = 3 for the MP prodrugs, read-out: HIV EC90): 0.035 µM; IC50 ([3]; Tables 2-4, read-out: PBM IC50): 9.6 µM; IC50 ([4]; Tables 2-4, read-out: CEM IC50): 12.1 µM; IC50 [5, 16]: > 100 µM
CCOC(=O)[C@H](C)NP(=O)(OC[C@H]1O[C@@H](n2cnc3c(Cl)nc(N)nc32)CC1N=[N+]=[N-])Oc1ccccc1 (stereo partly drawn) [RS-784] | – | – | – | – | – | – | – | – | EC50 ([7]; Human immunodeficiency virus 1, PBMC, Tables 2-4, n = 3 for the MP prodrugs, read-out: HIV EC50): 35 nM; EC90 ([7]; Human immunodeficiency virus 1, PBMC, Tables 2-4, n = 3 for the MP prodrugs, read-out: HIV EC90): 0.1 µM; IC50 ([3]; Homo sapiens, PBMC, Tables 2-4, read-out: PBM IC50): 11.6 µM; IC50 ([4]; Homo sapiens, CCRF-CEM, Tables 2-4, read-out: CEM IC50): 13.5 µM; IC50 [5, 16]: > 100 µM
